Data reported in PubChem BioAssay (NCI).
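Grown in 96-well plates, cells were treated for 48 hours with each compound at five concentrations. Insufficient inhibition: endpoint recorded as highest concentration tested. TGI: concentration producing complete growth inhibition.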

Columns and labels:
Experiment in all cases: NCI tumour cell line growth inhibition, 48 h
[1] = test system: OVCAR-3 ovarian
[2] = test system: HT29 colon
[3] = test system: UO-31 renal
[4] = test system: OVCAR-8 ovarian
[5] = test system: SN12C renal
[6] = test system: COLO 205 colon
[7] = test system: K-562 leukemia
[8] = test system: DMS 114 small cell lung
[9] = test system: LXFL 529 NSCLC
[10] = test system: MALME-3M melanoma
[11] = test system: SR leukemia
[12] = test system: TK-10 renal
[13] = test system: ACHN renal
[14] = test system: UACC-257 melanoma
[15] = test system: SN12K1 renal
[16] = test system: XF 498 CNS
[17] = test system: MCF7 breast
[18] = test system: NCI/ADR-RES ovarian
[19] = test system: P388 leukemia
[20] = test system: P388/ADR leukemia

`COc1ccc(C[C@H](N)C(=O)N2C[C@H](CO)C[C@H](n3cnc4c(N(C)C)ncnc43)C2)cc1` showed a TGI [1] greater than 100 µM, a TGI [2] greater than 100 µM and a TGI [3] greater than 100 µM. The TGI [4] was greater than 100 µM, the TGI [5] was greater than 100 µM and the TGI [6] was greater than 100 µM. For the same molecule, the TGI [7] was greater than 100 µM, the TGI [8] was greater than 100 µM and the TGI [9] was greater than 100 µM. For the same molecule, the TGI [10] was greater than 100 µM, the TGI [11] was greater than 100 µM and the TGI [12] was greater than 100 µM. It also gave a TGI [13] greater than 100 µM.

With `O=C1c2ccccc2C(=O)c2c1ccc1c2N=C(c2ccc(F)cc2)CC(c2ccc(Cl)c(Cl)c2)N1` (stereo not given) the TGI [14] was 50 µM, the TGI [2] was 26.3 µM and the TGI [3] was 23.5 µM. For the same molecule, the TGI [4] was 26.6 µM, the TGI [5] was 32.4 µM and the TGI [6] was 33.4 µM. It also gave a TGI [7] of 33.5 µM, a TGI [8] of 21.7 µM and a TGI [9] of 30 µM. It also gave a TGI [11] of 54.4 µM, a TGI [12] of 34 µM and a TGI [13] of 27.8 µM.

`CSc1nc(NC2OCC(O)C(O)C2O)c(N)c(=O)n1C` (stereo not given) was tested, and the TGI [1] was greater than 100 µM, the TGI [14] was greater than 100 µM and the TGI [2] was greater than 100 µM. The TGI [15] was greater than 100 µM, the TGI [3] was greater than 100 µM and the TGI [4] was greater than 100 µM. The TGI [5] was greater than 100 µM, the TGI [6] was greater than 100 µM and the TGI [7] was greater than 100 µM. It also gave a TGI [16] greater than 100 µM, a TGI [17] greater than 100 µM and a TGI [10] greater than 100 µM. For the same molecule, the TGI [18] was greater than 100 µM, the TGI [19] was greater than 100 µM and the TGI [20] was greater than 100 µM.

`C[C@@H]1C[C@]2(C[C@@H](C)[C@H]3C(C[C@@]4(C)CCC[C@@H]5C6=C[C@H](CCC34C)OC6=CC(=O)OC5(C)C)O2)OC1=O` (stereo not given in full) was tested, and the TGI [1] was greater than 51.5 µM, the TGI [14] was greater than 51.5 µM and the TGI [2] was greater than 51.5 µM. It also gave a TGI [15] greater than 51.5 µM, a TGI [3] greater than 51.5 µM and a TGI [4] greater than 51.5 µM. The TGI [5] was greater than 51.5 µM, the TGI [6] was greater than 51.5 µM and the TGI [7] was greater than 51.5 µM. It also gave a TGI [16] greater than 51.5 µM, a TGI [8] greater than 51.5 µM and a TGI [17] greater than 51.5 µM. The TGI [18] was greater than 51.5 µM, the TGI [19] was greater than 51.5 µM and the TGI [20] was greater than 51.5 µM.
